# Data taken from paper PMC8887546, “Design and Synthesis of Brain Penetrant Glycopeptide Analogues of PACAP With Neuroprotective Potential for Traumatic Brain Injury and Parkinsonism” (Frontiers in drug discovery, 2022).
# Experiments:
# Type in all cases: in vivo, mouse
# [1] = system: C57BL/6 mice, diffuse TBI; assay: Novel object recognition after TBI; conditions: 10 mg/kg i.p. 30 min prior to TBI, 14 DPI
# Experimental: (§1) 30 min prior to TBI or sham injury, mice were randomly assigned to a therapeutic group and received an intraperitoneal injection of 2LS80Mel (10 mg/kg) or sterile saline (0.25 ml). Groups were as follows: TBI-2LS80Mel n = 17; TBI-vehicle n = 17; sham n = 22 (vehicle n = 11, 2LS80Mel n = 11).
# For injury induction 24 h post-surgery, mice were re-anesthetized with 5% isoflurane delivered for 3 min. The cap was removed from the injury-hub assembly and the dura was visually inspected through the hub to ensure it was intact with no debris. […] Injured mice were monitored for presence of a forearm fencing response and righting reflex times were recorded as indicators of injury severity ([Hosseini and Lifshitz, 2009]). […] After spontaneously righting, mice were placed in a heated recovery cage and monitored until they were ambulatory (approximately 5–15 min) before being returned to their piezoelectric sleep cage (see below). […]
# Cognitive impairment was tested at 14 DPI using the novel object recognition (NOR) test as previously published ([Rowe et al., 2014b]; [Harrison et al., 2015]; [Saber et al., 2021]). […] For testing, the times spent actively investigating the novel and familiar object were quantified. […] If an animal climbed onto an object and sniffed into the air, this time was not calculated into the exploration of the novel object.
# [2] = system: C57BL/6 mice, diffuse TBI; assay: Flow cytometry analysis of blood after TBI; conditions: 10 mg/kg i.p. 30 min prior to TBI
# Experimental: as §1
# (§2) For injury induction 24 h post-surgery, mice were re-anesthetized with 5% isoflurane delivered for 3 min. The cap was removed from the injury-hub assembly and the dura was visually inspected through the hub to ensure it was intact with no debris. The hub was then filled with normal saline and attached to an extension tube connected to the male end of the fluid percussion device (Custom Design and Fabrication, Virginia Commonwealth University, Richmond, VA). An injury of moderate severity for our injury model (1.4 atm) was administered by releasing the pendulum onto the fluid-filled cylinder following the return of a toe-pinch response. Sham mice underwent the same procedure except the pendulum was not released. Injured mice were monitored for presence of a forearm fencing response and righting reflex times were recorded as indicators of injury severity ([Hosseini and Lifshitz, 2009]). The righting reflex time is the total time from the initial impact until the mouse spontaneously rights itself from a supine position. The fencing response is a tonic posturing characterized by extension and flexion of opposite arms that has been validated as an overt indicator of injury severity ([Hosseini and Lifshitz, 2009]). The injury hub was removed, and the brain was inspected for uniform herniation and integrity of the dura. The incision was cleaned with saline and closed using sutures. Moderately brain-injured mice had righting reflex recovery times greater than 4 min and a positive fencing response. […] After spontaneously righting, mice were placed in a heated recovery cage and monitored until they were ambulatory (approximately 5–15 min) before being returned to their piezoelectric sleep cage (see below). […]
# [3] = system: C57BL/6 mice, diffuse TBI; assay: Iba1 microglial skeletal analysis after TBI; conditions: 10 mg/kg i.p. 30 min prior to TBI, 15 DPI, cortex
# Experimental: as §1
# as §2, with “2009]).” for “2009]). The righting reflex time is the total time from the initial impact until the mouse spontaneously rights itself from a supine position. The fencing response is a tonic posturing characterized by extension and flexion of opposite arms that has been validated as an overt indicator of injury severity ([Hosseini and Lifshitz, 2009]). The injury hub was removed, and the brain was inspected for uniform herniation and integrity of the dura. The incision was cleaned with saline and closed using sutures. Moderately brain-injured mice had righting reflex recovery times greater than 4 min and a positive fencing response.”
smiles,measurement,setting,value
CC[C@H](C)[C@H](NC(=O)CNC(=O)[C@H](CC(=O)O)NC(=O)[C@H](CO)NC(=O)[C@@H](N)Cc1c[nH]cn1)C(=O)N[C@@H](Cc1ccccc1)C(=O)N[C@H](C(=O)N[C@@H](CC(=O)O)C(=O)N[C@@H](CO)C(=O)N[C@@H](Cc1ccc(O)cc1)C(=O)N[C@@H](CO)C(=O)N[C@@H](CCCNC(=N)N)C(=O)N[C@@H](Cc1ccc(O)cc1)C(=O)N[C@@H](CCCNC(=N)N)C(=O)N[C@@H](CCCCN)C(=O)N[C@@H](CCC(N)=O)C(=O)N[C@@H](CC(C)C)C(=O)N[C@@H](C)C(=O)N[C@H](C(=O)N[C@@H](CCCCN)C(=O)N[C@@H](CCCCN)C(=O)N[C@@H](Cc1ccc(O)cc1)C(=O)N[C@@H](CC(C)C)C(=O)N[C@@H](C)C(=O)N[C@@H](C)C(=O)N[C@H](C(=O)N[C@@H](CC(C)C)C(=O)N[C@@H](CO[C@@H]1O[C@H](CO[C@H]2O[C@H](CO)[C@H](O)[C@H](O)[C@H]2O)[C@@H](O)[C@H](O)[C@H]1O)C(N)=O)C(C)C)C(C)C)[C@@H](C)O [Compound 2LS80Mel],Novel object recognition (cognitive deficits),[1],no TBI-induced cognitive deficits among any group
same,CD11b+CD115+Ly6Chigh monocyte population in blood,[2],increase was not seen
same,CD11b+Ly6Chigh monocyte population in blood,[2],increase was not seen
same,Neutrophil populations in blood,[2],no differences
same,Microglial ramification,[3],no significant differences
